Results on one compound are retold here after patent US6875847B1, “Linoleate and linolenate-lipoxygenase mutants” (Institut fur Pflanzenbiochemie IPE, priority 1999, dated 2005).

This assay has as its target T1, Cucumis sativus (cucumber) lipid body lipoxygenase (cslbLOX, 13-LOX), wild type, X92890, FIG. 5 (Cucumis sativus, UniProt Q42710).
T1 sequence (Q42710 1-878): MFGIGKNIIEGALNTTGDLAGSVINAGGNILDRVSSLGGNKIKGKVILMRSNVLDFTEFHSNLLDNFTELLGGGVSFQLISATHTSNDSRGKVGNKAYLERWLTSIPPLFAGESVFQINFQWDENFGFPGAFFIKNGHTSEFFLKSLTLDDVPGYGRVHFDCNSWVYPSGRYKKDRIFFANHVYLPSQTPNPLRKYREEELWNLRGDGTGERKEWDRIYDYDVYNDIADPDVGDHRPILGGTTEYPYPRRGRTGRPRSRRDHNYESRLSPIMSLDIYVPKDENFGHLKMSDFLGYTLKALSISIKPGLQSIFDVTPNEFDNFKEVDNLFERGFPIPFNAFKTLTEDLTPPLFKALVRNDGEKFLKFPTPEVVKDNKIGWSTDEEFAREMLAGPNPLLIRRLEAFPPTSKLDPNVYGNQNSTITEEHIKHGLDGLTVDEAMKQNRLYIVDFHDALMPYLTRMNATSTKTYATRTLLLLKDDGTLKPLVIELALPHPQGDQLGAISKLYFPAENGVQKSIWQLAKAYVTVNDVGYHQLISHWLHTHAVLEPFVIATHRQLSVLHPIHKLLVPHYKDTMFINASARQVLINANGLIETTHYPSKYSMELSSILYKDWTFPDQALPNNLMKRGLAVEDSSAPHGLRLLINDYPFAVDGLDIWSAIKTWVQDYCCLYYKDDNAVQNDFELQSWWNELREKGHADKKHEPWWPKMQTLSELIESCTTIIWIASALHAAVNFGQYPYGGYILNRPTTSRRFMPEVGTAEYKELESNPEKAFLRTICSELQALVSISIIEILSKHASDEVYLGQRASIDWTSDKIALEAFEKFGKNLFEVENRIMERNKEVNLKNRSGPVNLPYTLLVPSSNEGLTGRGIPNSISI
Briefly: Kinetic characterization of wild-type LOX (13-LOX) with LA. The note with it: 23 points measured between 100 μM and 250 μM LA. It counts as biochemical. As to the method: For the bacterial expression of wild-type LOX and for directed mutagenesis the plasmid pQE-30 (Qiagen, Hilden, Germany), which contained the cDNA of the LOX from lipid bodies of cucumber cotyledons as an insert (LOXpQE 30: cf. Feussner, I., Bachmann, A., Höhne, M. & Kindl, H. (1998) FEBS Lett. 431, 433-436) was used. The mutagenesis was carried out with the aid of the QuikChange Mutagenesis Kit from Stratagene (Heidelberg, Germany). Oligonucleotides with the appropriate base exchanges were obtained from MWG-Biotech (Ebersberg, Germany). For the analysis of the mutations further conservative base exchange was initiated in order to create new restriction division sites or to delete existing ones. In addition all the mutations were sequenced and at least three different bacterial clones expressed and used for the investigation of enzymatic properties. The expression of LOXpQE-30 and all the mutations was carried out according to Feussner, I., Bachmann, A., Höhne, M. & Kindl, H. (1998) FEBS Left. 431, 433-436. Cells from 1-liter cultures were resuspended in 5 to 7 ml lysis buffer and with the aid of an ultrasound needle broken up with pulses each of 30 seconds, and the cell debris made into pellets. The affinity purification of the polyHis-extended LOX was carried out as previously described (cf. Feussner, I., Bachmann, A., Höhne, M. & Kindl, H. (1998) FEBS Lett. 431, 433436).

With `CCCCC/C=C\C/C=C\CCCCCCCC(=O)O` [LA, linoleic acid], the Km came to 115 µM and the “LA turnover at Vmax condition (substrate saturation)” value came to 12 s⁻¹.

What is called Km is the concentration of substrate that gives half-maximal velocity.
